Measured values as given in ChEMBL document CHEMBL1126373, “HIV and reverse transcriptase inhibition by tannins” (Bioorg Med Chem Lett, 1992).

Legend:
[1] = biological target: Human immunodeficiency virus type 1 reverse transcriptase (Human immunodeficiency virus 1) (UniProt Q72547); experiment: Inhibition against HIV- reverse transcriptase in cell culture at 20 ug/mL
[2] = system: Human immunodeficiency virus 1; experiment: Inhibition against HIV replication in cell culture at 20 ug/mL; assay type: functional; settings: Human immunodeficiency virus 1
[3] = system: Human immunodeficiency virus 1; experiment: Therapeutic index was determined; settings: read-out: Therapeutic index
[4] = system: Human immunodeficiency virus 1; experiment: Anti-HIV activity in cell culture assay expressed as EC50 values.; assay type: functional, organism-based; settings: Human immunodeficiency virus 1
[5] = system: Human immunodeficiency virus 1; experiment: Anti-HIV activity in cell culture assay expressed as IC50 values.; assay type: functional, organism-based

Structure (SMILES) | inhibition [1] [%] | inhibition at 20 µg/mL [2] [%] | selectivity ratio [3] | EC50 [4] [µM] | IC50 ([5]; Human immunodeficiency virus 1) [µM] | IC50 [5] [µM]
Oc1cc(O)c2c(c1)O[C@H](c1ccc(O)c(O)c1)[C@H](O)[C@H]2c1c(O)cc(O)c2c1O[C@H](c1ccc(O)c(O)c1)[C@H](O)[C@H]2c1c(O)cc(O)c2c1O[C@H](c1ccc(O)c(O)c1)[C@H](O)C2 [PROCYANIDIN C1] | 18 | 68 | > 1 | > 25 | > 25 | –
CC1(C)CC[C@]2(C(=O)O[C@@H]3O[C@H](CO)[C@@H](O)[C@H](O)[C@H]3O)CC[C@]3(C)C(=CCC4[C@@]5(C)C[C@@H](O)[C@@H]6OC(=O)c7cc(O)c(O)c(O)c7-c7c(cc(O)c(O)c7O)C(=O)OC[C@@]6(CO)C5CC[C@]43C)C2C1 (stereo partly specified) | 17 | 47 | 1.6 | 18 | 28 | –
CC1(C)CC[C@]2(C(=O)O)CC[C@]3(C)C(=CCC4[C@@]5(C)C[C@@H](O)[C@@H]6OC(=O)c7cc(O)c(O)c(O)c7-c7c(cc(O)c(O)c7O)C(=O)OC[C@@]6(CO)C5CC[C@]43C)C2C1 (stereo partly specified) | 18 | 23 | 1 | 40 | 40 | –
Oc1cc(O)c2c(c1)O[C@H](c1ccc(O)c(O)c1)[C@H](O)[C@H]2c1c(O)cc(O)c2c1O[C@@]1(c3ccc(O)c(O)c3)Oc3cc(O)c4c(c3[C@@H]2[C@H]1O)O[C@H](c1ccc(O)c(O)c1)[C@H](O)[C@H]4c1c(O)cc(O)c2c1O[C@H](c1ccc(O)c(O)c1)[C@H](O)C2 [CINNAMTANNIN B2] | 19 | 73 | > 1.7 | 15 | > 25 | –
O=C(O[C@@H]1O[C@@H]2COC(=O)c3cc(O)c(O)c(O)c3-c3c(cc(O)c(O)c3O)C(=O)O[C@H]([C@H]1O)[C@@H]2O)c1cc(O)c(O)c(O)c1 [CORILAGIN] | 57 | 90 | 1 | 15 | 15 | –
O=C1OCC2OC(=O)c3cc(O)c(O)c(O)c3-c3c(O)c(O)c(O)c4c3C(=O)OC(C2OC(=O)c2cc(O)c(O)c(O)c2-c2c1cc(O)c(O)c2O)C1OC(=O)c2c-4c(O)c(O)c(O)c2[C@@H]1c1c(O)cc(O)c2c1O[C@H](c1ccc(O)c(O)c1)[C@@H](O)C2 (stereo partly specified) | 24 | 88 | 3.8 | 4 | 15 | –
O=C(OC[C@H]1OC(O)[C@@](O)(COC(=O)c2cc(O)c(O)c(O)c2)[C@@H]1O)c1cc(O)c(O)c(O)c1 (stereo partly specified) [HAMAMELITANNIN] | 16 | 40 | 0.9 | 50 | 45 | –
O=C(OC[C@H]1O[C@@H](OC(=O)c2cc(O)c(O)c(O)c2)[C@H](OC(=O)c2cc(O)c(O)c(O)c2)[C@@H](OC(=O)c2cc(O)c(O)c(O)c2)[C@@H]1OC(=O)c1cc(O)c(O)c(O)c1)c1cc(O)c(O)c(O)c1 (stereo in doubt; 10) | 2 | – | – | – | – | –
O=C(O)C1=C[C@@H](O)[C@@H](O)[C@H](OC(=O)c2cc(O)c(O)c(O)c2)C1 | 0 | 90 | 1.4 | 18 | 25 | –
O=C(OC[C@H]1O[C@@H](OC(=O)c2cc(O)c(O)c(O)c2)[C@H](OC(=O)c2cc(O)c(O)c(O)c2)[C@@H](O)[C@@H]1O)c1cc(O)c(O)c(O)c1 | 16 | 20 | 0.4 | 50 | 19 | –
O=C1O[C@H]2[C@@H]3OC(=O)c4cc(O)c(O)c(O)c4-c4c(cc(O)c(O)c4O)C(=O)OC[C@H]2O[C@@H](OC(=O)c2cc(O)c(O)c(O)c2)[C@@H]3OC(=O)c2cc(O)c(O)c3c2[C@@H]2C1=CC(=O)C(O)(O)C2(O)O3 (stereo partly specified) | 15 | 92 | 1.2 | 12 | 14 | –
O=C1O[C@H]2[C@H](OC(=O)c3cc(O)c(O)c(O)c3)[C@@H](OC(=O)c3cc(O)c(O)c4c3[C@@H]3C1=CC(=O)C(O)(O)C3(O)O4)[C@H](OC(=O)c1cc(O)c(O)c(O)c1)O[C@@H]2COC(=O)c1cc(O)c(O)c(O)c1 (stereo partly specified) [TERCHEBIN] | 13 | 50 | 1.9 | 21 | 40 | –
Oc1cc(O)c2c(c1)O[C@@]1(c3ccc(O)c(O)c3)Oc3cc(O)c4c(c3[C@@H]2[C@H]1O)O[C@H](c1ccc(O)c(O)c1)[C@H](O)[C@H]4c1c(O)cc(O)c2c1O[C@H](c1ccc(O)c(O)c1)[C@H](O)C2 [CINNAMTANNIN B1] | 13 | 90 | > 1.2 | 21 | > 25 | –
O=C(OC[C@H]1O[C@@H](OC(=O)c2cc(O)c(O)c(O)c2)[C@H](OC(=O)c2cc(O)c(O)c(O)c2)[C@@H](OC(=O)c2cc(O)c(O)c(O)c2)[C@@H]1OC(=O)c1cc(O)c(O)c(O)c1)c1cc(O)c(O)c(O)c1 (stereo in doubt; 11) | 0 | – | – | – | – | –
O=C1OCC2OC(=O)c3cc(O)c(O)c(O)c3-c3c(O)c(O)c(O)c4c3C(=O)OC(C2OC(=O)c2cc(O)c(O)c(O)c2-c2c1cc(O)c(O)c2O)C1OC(=O)c2c-4c(O)c(O)c(O)c2[C@H]1O (stereo partly specified) | 45 | 90 | 0.9 | 16 | 15 | –
O=C(OC[C@H]1OC(O)[C@@](O)(COC(=O)c2cc(O)c(O)c(O)c2)[C@@H]1OC(=O)c1cc(O)c(O)c(O)c1)c1cc(O)c(O)c(O)c1 (stereo partly specified) | 25 | 30 | 0.9 | 45 | 40 | –
Oc1cc(O)c2c(c1)O[C@H](c1ccc(O)c(O)c1)[C@H](O)[C@H]2c1c(O)cc(O)c2c1O[C@H](c1ccc(O)c(O)c1)[C@H](O)C2 [PROCYANIDIN B2] | 21 | 40 | – | > 25 | > 25 | –
O=C(/C=C/c1ccc(O)c2c1[C@H](C(=O)O[C@H](Cc1ccc(O)c(O)c1)C(=O)O)[C@@H](c1ccc(O)c(O)c1)O2)O[C@H](Cc1ccc(O)c(O)c1)C(=O)O [MAGNESIUM LITHOSPERMATE B] | 18 | 35 | – | > 25 | > 25 | –
O=C(OC[C@@H]1O[C@@H](OC(=O)c2cc(O)c(O)c(O)c2)[C@@H](OC(=O)c2cc(O)c(O)c(O)c2)[C@@H](OC(=O)c2cc(O)c(O)c(O)c2)[C@@H]1OC(=O)c1cc(O)c(O)c(O)c1Oc1cc2c(c(O)c1O)-c1c(cc(O)c(O)c1O)C(=O)OC[C@@H]1O[C@@H](OC(=O)c3cc(O)c(O)c(O)c3)[C@@H](OC(=O)c3cc(O)c(O)c(O)c3)[C@@H](OC(=O)c3cc(O)c(O)c(O)c3)[C@@H]1OC2=O)c1cc(O)c(O)c(O)c1 | 0 | 50 | 3.3 | 12 | 39 | –
O=C(O[C@H]1[C@H](O)C[C@](O)(C(=O)O)C[C@H]1O)c1cc(O)c(O)c(O)c1 | 0 | 0 | < 0.8 | > 100 | 80 | –
Oc1cc(O)c2c(c1)O[C@@]1(c3ccc(O)c(O)c3)Oc3cc(O)c4c(c3[C@@H]2[C@H]1O)O[C@H](c1ccc(O)c(O)c1)[C@H](O)C4 [PROANTHOCYANIDIN A2] | 18 | 30 | – | > 25 | > 25 | –
O=C1OCC2OC(=O)c3cc(O)c(O)c(O)c3-c3c(O)c(O)c(O)c4c3C(=O)OC(C2OC(=O)c2cc(O)c(O)c(O)c2-c2c1cc(O)c(O)c2O)C1OC(=O)c2c-4c(O)c(O)c(O)c2[C@@H]1O (stereo partly specified) | 40 | 90 | 1 | 15 | 15 | –
O=C(O[C@@H]1[C@@H](c2c(O)cc(O)c3c2O[C@H](c2ccc(O)c(O)c2)[C@H](OC(=O)c2cc(O)c(O)c(O)c2)C3)c2c(O)cc(O)c([C@H]3c4c(O)cc(O)cc4O[C@H](c4ccc(O)c(O)c4)[C@@H]3OC(=O)c3cc(O)c(O)c(O)c3)c2O[C@@H]1c1ccc(O)c(O)c1)c1cc(O)c(O)c(O)c1 | 13 | 47 | > 1.5 | 17 | > 25 | –
O=C(O[C@H]1[C@H](O)C[C@](OC(=O)c2cc(O)c(O)c(O)c2)(C(=O)O)C[C@H]1O)c1cc(O)c(O)c(O)c1 | 0 | 65 | 1.8 | 25 | 45 | –
O=C(O[C@@H]1O[C@@H]2COC(=O)c3cc(O)c(O)c(O)c3-c3c(cc(O)c(O)c3O)C(=O)O[C@H]([C@H]1OC(=O)c1cc(O)c(O)c(O)c1)[C@@H]2OC(=O)c1cc(O)c(O)c(O)c1)c1cc(O)c(O)c(O)c1 [PUNICAFOLIN] | 0 | 60 | 1.8 | 19 | 34 | –
O=C(O)C1=C[C@@H](O)[C@@H](O)[C@H](OC(=O)c2cc(O)c(O)c(OC(=O)c3cc(O)c(O)c(O)c3)c2)C1 | 31 | 60 | 1.3 | 30 | 40 | –
O=C(O[C@@H]1[C@@H](c2c(O)cc(O)c3c2O[C@H](c2ccc(O)c(O)c2)[C@H](OC(=O)c2cc(O)c(O)c(O)c2)C3)c2c(O)cc(O)cc2O[C@@H]1c1ccc(O)c(O)c1)c1cc(O)c(O)c(O)c1 | 0 | 90 | – | 14 | > 25 | –
O=C(O[C@@H]1Cc2c(O)cc(O)cc2O[C@@H]1c1ccc(O)c(O)c1)c1cc(O)c(O)c(O)c1 [EPICATECHIN GALLATE] | 5 | 40 | – | > 25 | > 25 | –
O=C(OC[C@H]1O[C@@H](OC(=O)c2cc(O)c(O)c(O)c2)[C@H](OC(=O)c2cc(O)c(O)c(O)c2)[C@@H](OC(=O)c2cc(O)c(O)c(O)c2)[C@@H]1OC(=O)c1cc(O)c(O)c(O)c1)c1cc(O)c(O)c(O)c1 (stereo in doubt; 11) [PENTAGALLOYL GLUCOSE] | – | 65 | 2.5 | 18 | – | 45
